Measured values reported in patent US12162878B2 (HINOVA PHARMACEUTICALS INC., priority 2018, dated 2024).

Tested on: CWR22RV1 cells
Experiment: Inhibition of proliferation of CWR22RV1 cells (CCK-8)
Assay type: cell-based, human
Settings: Homo sapiens, CWR22Rv1, 144 h, 6 days
Summary of the method: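 Cells seeded at 1500/well, cultured overnight, then exposed to compounds in 3-fold dilutions (9 concentrations from 10 μM top final, 0.1% DMSO) for 6 days at 37 °C. Viability read by CCK-8 absorbance at 450 nm after 2.5 h; IC50 from dose-response inhibition fit.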

Going from [2H]C([2H])([2H])n1cc(-c2cc(S(=O)(=O)N(C)C)ccc2N2CCC3(CC2)CC3)c2cc[nH]c2c1=O [Compound 203, N,N-dimethyl-3-(6-trideuteromethyl-7-oxo-6,7-dihydro-1H-pyrrolo[2,3-c]pyridin-4-yl)-4-(6-aza-spiro[2.5]octan-6-yl)benzenesulfonamide] to [2H]C([2H])([2H])n1cc(-c2cc(S(=O)(=O)C(C)C)ccc2N2CCC3(CC2)CC3)c2cc[nH]c2c1=O [Compound 234, 4-(5-(isopropylsulfonyl)-2-(6-aza-spiro[2.5]octan-6-yl)phenyl)-6-trideuteromethyl-1H-pyrrolo[2,3-c]pyridin-7(6H)-one], the IC50 rises from 0.2 nM to 0.9 nM (4.5-fold).

First: [2H]C([2H])([2H])n1cc(-c2cc(S(=O)(=O)NCCO)ccc2N2CCC3(CC2)CC3)c2cc[nH]c2c1=O [Compound 205, N-(2-hydroxyethyl)-3-(6-trideuteromethyl-7-oxo-6,7-dihydro-1H-pyrrolo[2,3-c]pyridin-4-yl)-4-(6-aza-spiro[2.5]octan-6-yl)benzenesulfonamide]
Second: [2H]C([2H])([2H])n1cc(-c2cc(S(=O)(=O)CC)ccc2N2CCC3(CC2)CC3)c2cc[nH]c2c1=O [Compound 232, 4-(5-(ethylsulfonyl)-2-(6-aza-spiro[2.5]octan-6-yl)phenyl)-6-trideuteromethyl-1H-pyrrolo[2,3-c]pyridin-7(6H)-one]
The IC50 of the first is 8-fold higher: 4.8 nM for the first, 0.6 nM for the second. The second is the more potent here.

Compared with Cn1cc(-c2cc(C(=O)O)ccc2N2CCC3(CC2)CC3)c2cc[nH]c2c1=O [Compound 220, 3-(6-methyl-7-oxo-6,7-dihydro-1H-pyrrolo[2,3-c]pyridin-4-yl)-4-(6-aza-spiro[2.5]octan-6-yl)benzoic acid], Cn1cc(-c2cc(C(N)=O)ccc2N2CCC3(CC2)CC3)c2cc[nH]c2c1=O [Compound 221, 3-(6-methyl-7-oxo-6,7-dihydro-1H-pyrrolo[2,3-c]pyridin-4-yl)-4-(6-aza-spiro[2.5]octan-6-yl)benzeneformamide] is 4.1-fold lower in IC50: 530 nM for the first, 130 nM for the second.

First: COC(=O)c1ccc(N2CCC3(CC2)CC3)c(-c2cn(C)c(=O)c3[nH]ccc23)c1 [Compound 222, methyl 3-(6-methyl-7-oxo-6,7-dihydro-1H-pyrrolo[2,3-c]pyridin-4-yl)-4-(6-aza-spiro[2.5]octan-6-yl)benzoate]
Second: CC(=O)c1ccc(N2CCC3(CC2)CC3)c(-c2cn(C)c(=O)c3[nH]ccc23)c1 [Compound 223, 4-(5-acetyl-2-(6-aza-spiro[2.5]octan-6-yl)phenyl)-6-methyl-1H-pyrrolo[2,3-c]pyridin-7(6H)-one]
The IC50 of the first is 3.2-fold higher: 350 nM for the first, 110 nM for the second.

First: Cn1cc(-c2cc(C(=O)N3CCS(=O)(=O)CC3)ccc2N2CCC3(CC2)CC3)c2cc[nH]c2c1=O [Compound 224, 4-(5-(1,1-dioxothiomorpholine-4-carbonyl)-2-(6-aza-spiro[2.5]octan-6-yl)phenyl)-6-methyl-1H-pyrrolo[2,3-c]pyridin-7(6H)-one]
Second: Cn1cc(-c2cc(N)ccc2N2CCC3(CC2)CC3)c2cc[nH]c2c1=O [Compound 245, 4-(5-amino-2-(6-aza-spiro[2.5]octan-6-yl)phenyl)-6-methyl-1H-pyrrolo[2,3-c]pyridin-7(6H)-one]
The IC50 of the first is 3.7-fold lower: 62 nM for the first, 230 nM for the second. The first is the more potent here.

First: Cn1cc(-c2cc(C(C)(C)O)ccc2N2CCC3(CC2)CC3)c2cc[nH]c2c1=O [Compound 225, 4-(5-(2-hydroxypropan-2-yl)-2-(6-aza-spiro[2.5]octan-6-yl)phenyl)-6-methyl-1H-pyrrolo[2,3-c]pyridin-7(6H)-one]
Second: CC(=O)Nc1ccc(N2CCC3(CC2)COC3)c(-c2cn(C)c(=O)c3[nH]ccc23)c1 [Compound 230]
The IC50 of the first is 1.9-fold lower: 130 nM for the first, 250 nM for the second. The first is the more potent here.

Going from [2H]C([2H])([2H])n1cc(-c2cc(S(=O)(=O)C(C)C)ccc2N2CCC3(CC2)CC3(F)F)c2cc[nH]c2c1=O [Compound 233, 4-(2-(1,1-difluoro-6-aza-spiro[2.5]octan-6-yl)-5-(isopropylsulfonyl)phenyl)-6-trideuteromethyl-1H-pyrrolo[2,3-c]pyridin-7(6H)-one] to [2H]C([2H])([2H])n1cc(-c2cc(S(=O)(=O)N3CCCC3C(=O)O)ccc2N2CCC3(CC2)CC3(F)F)c2cc[nH]c2c1=O (stereo not shown) [Compound 244, 1-((4-(1,1-difluoro-6-aza-spiro[2.5]octan-6-yl)-3-(6-trideuteromethyl-7-oxo-6,7-dihydro-1H-pyrrolo[2,3-c]pyridin-4-yl)phenyl)sulfonyl)pyrrolidin-2-carboxylic acid], the IC50 rises from 1.3 nM to 81 nM (62-fold).

Going from [2H]C([2H])([2H])n1cc(-c2cc(S(=O)(=O)CC(=O)O)ccc2N2CCC3(CC2)CC3)c2cc[nH]c2c1=O [Compound 235, 2-((3-(6-trideuteromethyl-7-oxo-6,7-dihydro-1H-pyrrolo[2,3-c]pyridin-4-yl)-4-(6-aza-spiro[2.5]octan-6-yl)phenyl)sulfonyl)acetic acid] to [2H]C([2H])([2H])n1cc(-c2cc(S(N)(=O)=O)c(F)cc2N2CCC3(CC2)CC3)c2cc[nH]c2c1=O [Compound 236, 2-fluoro-5-(6-trideuteromethyl-7-oxo-6,7-dihydro-1H-pyrrolo [2,3-c]pyridin-4-yl)-4-(6-aza-spiro[2.5]octan-6-yl)benzenesulfonamide], the IC50 rises from 1.7 nM to 3.2 nM (1.9-fold). The first is the more potent here.

First: [2H]C([2H])([2H])n1cc(-c2cc(S(C)(=O)=O)c(N3CCC4(CC3)CC4)cc2F)c2cc[nH]c2c1=O [Compound 237, 4-(2-fluoro-5-(methanesulfonyl)-4-(6-aza-spiro[2.5]octan-6-yl)phenyl)-6-trideuteromethyl-1H-pyrrolo[2,3-c]pyridin-7(6H)-one]
Second: [2H]C([2H])([2H])n1cc(-c2cc(S(C)(=O)=O)c(F)cc2N2CCC3(CC2)CC3)c2cc[nH]c2c1=O [Compound 238, 4-(4-fluoro-5-(methanesulfonyl)-2-(6-aza-spiro[2.5]octan-6-yl)phenyl)-6-trideuteromethyl-1H-pyrrolo[2,3-c]pyridin-7(6H)-one]
The IC50 of the first is 1.9-fold lower: 4.2 nM for the first, 8 nM for the second.

First: Cn1cc(-c2cc(NS(C)(=O)=O)ccc2N2CCC3(CC3)C2)c2cc[nH]c2c1=O [Compound 246, N-(3-(6-methyl-7-oxo-6,7-dihydro-1H-pyrrolo[2,3-c]pyridin-4-yl)-4-(5-aza-spiro[2.4]heptan-5-yl)phenyl)methanesulfonamide]
Second: Cn1cc(-c2cc(NC(=O)CCC(=O)O)ccc2N2CCC3(CC2)CC3)c2cc[nH]c2c1=O [Compound 247, 4-((3-(6-methyl-7-oxo-6,7-dihydro-1H-pyrrolo[2,3-c]pyridin-4-yl)-4-(6-aza-spiro[2.5]octan-6-yl)phenyl)amino)-4-oxobutyric acid]
The IC50 of the first is 22-fold lower: 30 nM for the first, 670 nM for the second. The first is the more potent here.

Compared with Cn1cc(-c2cc(S(C)(=O)=O)ccc2N2CCCC2C(=O)O)c2cc[nH]c2c1=O (stereo not shown) [Compound 248, 1-(2-(6-methyl-7-oxo-6,7-dihydro-1H-pyrrolo[2,3-c]pyridin-4-yl)-4-(methanesulfonyl)phenyl)pyrrolidin-2-carboxylic acid], Cn1cc(-c2cc(S(C)(=O)=O)ccc2N2CCCC2CCl)c2cc[nH]c2c1=O (stereo not shown) [Compound 249, 4-(2-(2-(chloromethyl)pyrrolidin-1-yl)-5-(methanesulfonyl)phenyl)-6-methyl-1H-pyrrolo[2,3-c]pyridin-7(6H)-one] is 54-fold lower in IC50: 7000 nM for the first, 130 nM for the second. The second is the more potent here.
